The record followed here is patent US10653693B2, “PRMT5 inhibitors and uses thereof” (Epizyme, Inc., priority 2014, dated 2020).

Structures are written as SMILES. Like-named read-outs stand apart in the source and are kept apart here.

One data set has as its system Z-138. Briefly: Long-term proliferation (LTP) assay. Type of data set: cell-based. Particulars: Homo sapiens, Table 3, read-out: LTP IC50. On the procedure:
FIG. 4 illustrates a representative sample of a long-term proliferation assay performed in the mantle cell lymphoma cell line Z-138. Assays were performed in technical triplicates, reading cell viability over 14 days. Growth curves (top panel) were calculated in Excel. IC50 (bottom panel) and IC90 (not shown) values were calculated in GraphPad Prism using a non-linear regression analysis, fixing the top and bottom of the curves to 100 and 0%, respectively. The IC50 values in the Table are indicated in microM. [table]

A further data set deals with Granta-519. Description: Long-term proliferation (LTP) assay. In kind it is cell-based. Particulars: Homo sapiens, Table 3, read-out: LTP IC50.
Another data set has as its system Jeko-1. Briefly: Long-term proliferation (LTP) assay. In kind it is cell-based. The following applies: Homo sapiens, Table 3, read-out: LTP IC50.
For another data set, the system named is Maver-1. Description: Long-term proliferation (LTP) assay. In kind it is cell-based. Particulars: Homo sapiens, Maver1, Table 3, read-out: LTP IC50.
The next data set concerns Mino. Description: Long-term proliferation (LTP) assay. In kind it is cell-based. Particulars: Homo sapiens, Table 3, read-out: LTP IC50.
For data set [1], the system named is sDMA methylation in Granta-519 cells. Description: sDMA western blot, 10 kDa band to total SmD3. In kind it is cell-based. The following applies: Homo sapiens, Table 3, read-out: sDMA Western IC50. How it is done:
(§1) The measurement of the 10 kDa band was used to calculate the methylation IC50 values. […] Concentration-dependent decreases in the 10 kDa band were observed on day 4 in all cell lines tested with representative western blots shown for Z-138 and Maver-1 cell lines (FIG. 1). Levels of the 10 kDa band from the western blots were quantified by densitometry and ratios of 10 kDa band (postulated to be SmD3me2s) to total SmD3 were calculated to determine the IC50s (Table 2, n=1 for all samples).
For orientation: A western blot detects proteins with antibodies after separation by electrophoresis.

Data set [2] deals with sDMA methylation in Jeko-1 cells. Description: sDMA western blot, 10 kDa band to total SmD3. In kind it is cell-based. The following applies: Homo sapiens, Table 3, read-out: sDMA Western IC50. How it is done:
as §1

In data set [3] the test system is sDMA methylation in Maver-1 cells. Description: sDMA western blot, 10 kDa band to total SmD3. Type of data set: cell-based. Particulars: Homo sapiens, Maver1, Table 3, read-out: sDMA Western IC50. On the procedure: as §1
The subject of data set [4] is sDMA methylation in Mino cells. Description: sDMA western blot, 10 kDa band to total SmD3. In kind it is cell-based. The following applies: Homo sapiens, Table 3, read-out: sDMA Western IC50. On the procedure:
as §1

The test system of data set [5] is sDMA methylation in Z-138 cells. Description: sDMA western blot, 10 kDa band to total SmD3. Type of data set: cell-based. The following applies: Homo sapiens, Table 3, read-out: sDMA Western IC50. How it is done: as §1
A further data set relates to Maver-1 cells. Description: Annexin-V staining (apoptosis). The following applies: after 4 days of treatment. Type of data set: cell-based, Human. On the procedure:
(§2) The mechanism of cell killing was evaluated in the MCL cell lines, Z-138 and Mayer-1. Cells were treated at various time points with 2 nM, 20 nM, and 200 nM of Formula B. Apoptosis was assessed by measuring the percentage of Annexin-V positive cells and the assay was performed in triplicate.

A further data set relates to Z-138 cells. Briefly: Annexin-V staining (apoptosis). Type of data set: cell-based, Human. The following applies: 200 nM. How it is done: as §2
In the next data set the test system is Z-138 xenograft model. Briefly: 21 day mantle cell lymphoma xenograft study: TGI and tumor methyl mark. Particulars: Z-138 xenograft; all doses tested; day 21. Type of data set: in vivo. On the procedure:
Data presented in this example were determined after analysis of 21 day samples of mantle cell lymphoma tumors. Cmin PK samples were taken prior to the last dose on day 21. Tumors were excised, weighed and processed for methyl mark. Methyl mark reduction was measured in tumor samples and is shown as percent of vehicle control (POC). […] Tumor growth inhibition was determined using tumor volume reduction at day 21 expressed as a percent of POC. In vivo inhibition curves were also generated and IC50 values determined. Plasma levels from each group are averaged from 5 animals. […] The average body weight loss (BWL) in all groups was <6%. All doses tested show >50% TGI. […] The average BWL in all groups was <4%. The average BWL in all groups was <8%, except in the 100 mg/kg does group were 4 animals exceeded BWL of 15%.

The next data set relates to Maver-1 xenograft model. Described as above. In kind it is in vivo. Particulars: all doses tested, day 21. On the procedure:
(§3) Data presented in this example were determined after analysis of 21 day samples of mantle cell lymphoma tumors. Cmin PK samples were taken prior to the last dose on day 21. Tumors were excised, weighed and processed for methyl mark. Methyl mark reduction was measured in tumor samples and is shown as percent of vehicle control (POC). Both SYM11 and sDMA Elisa were used to measure methyl mark and the data shown is averaged from 10 animals. Tumor growth inhibition was determined using tumor volume reduction at day 21 expressed as a percent of POC. In vivo inhibition curves were also generated and IC50 values determined. Plasma levels from each group are averaged from 5 animals. […] The average body weight loss (BWL) in all groups was <6%. All doses tested show >50% TGI. […] The average BWL in all groups was <4%. The average BWL in all groups was <8%, except in the 100 mg/kg does group were 4 animals exceeded BWL of 15%.

Data set [6] is described as follows: Body weight loss in Z-138 xenograft study. Type of data set: in vivo. On the procedure:
as §3

Another data set deals with MiaPaca-2 cells. Briefly: 2D-proliferation assay. Type of data set: cell-based. The following applies: Homo sapiens. On the procedure:
(§4) Calculation of growth inhibitory concentrations (g IC50) at Days 4, 6 and 13 treated with Formula D. 2D-proliferation assays were also performed on pancreatic cell lines treated with Formula D. Treatment of both Miapaca-2 and Panc-1 cells with Formula D results in a decrease in cell proliferation, as shown in FIG. 19.

Another data set deals with Panc-1 cells. Briefly: 2D-proliferation assay. In kind it is cell-based. The following applies: Homo sapiens. On the procedure:
as §4

A further data set concerns Miapaca-2. Description: Foci formation and cellular morphology. In kind it is cell-based. On the procedure:
(§5) FIG. 18 illustrates the effect of foci formation and cellular morphology in pancreatic cancer cell lines (Miapaca-2, Panc-1). The effects of treatment with Formula D on pancreatic cancer cell morphology was also tested.

The next data set deals with Panc-1. Description: Foci formation and cellular morphology. In kind it is cell-based. On the procedure:
as §5

For the compound `CC(=O)N1CCC(Nc2cc(C(=O)NC[C@H](O)CN3CCc4ccccc4C3)ncn2)CC1` [Formula A], the IC50 stood at 5.7 nM in the data set on Z-138; 4.7 nM in the data set with Granta-519; 11.3 nM in the data set with Jeko-1; 32 nM with Maver-1; 106 nM in the data set on Mino; 2 nM in [1]. Moreover, the IC50 in data set [2] worked out at 8.7 nM; in data set [3], 0.3 nM; in data set [4], 7 nM; in data set [5] it was 14 nM. In the data set on Maver-1 cells, the “cells stained positive for Annexin-V” value was determined as 8%. For the same compound, the results for the “increase in Annexin-V positive cells” value with Z-138 cells (after 4 days) and in the data set on Z-138 cells (after 6 days) were 12% and 40%, respectively. For the same compound, the “Tumor growth inhibition (TGI)” value in the data set with Z-138 xenograft model and in the data set with Maver-1 xenograft model was above 50% throughout. Moreover, the “body weight loss (BWL) exceeded by 4 animals” value in data set [6] (100 mg/kg dose group) was above 15%. Besides, the “average body weight loss (BWL) in all groups” value in [6] (21 days) is recorded as below 8%.

In the case of `O=C(COc1cccc2cccnc12)NC[C@@H](O)CN1CCc2ccccc2C1` [Formula D], the IC50 was determined as 349 nM with MiaPaca-2 cells (MIA PaCa-2, 96 h, Day 4, read-out: growth inhibitory concentration (gIC50)); 269 nM in the data set with MiaPaca-2 cells (MIA PaCa-2, 144 h, Day 6, read-out: growth inhibitory concentration (gIC50)); 929 nM in the data set with MiaPaca-2 cells (MIA PaCa-2, 312 h, Day 13, read-out: growth inhibitory concentration (gIC50)); 1990 nM with Panc-1 cells (96 h, Day 4, read-out: growth inhibitory concentration (gIC50)); 1240 nM in the data set on Panc-1 cells (144 h, Day 6, read-out: growth inhibitory concentration (gIC50)); 3900 nM in the data set with Panc-1 cells (312 h, Day 13, read-out: growth inhibitory concentration (gIC50)). Besides, the “effect on pancreatic cancer cell morphology / growth” value in the data set on Miapaca-2 and in the data set with Panc-1 was “inhibition of cancer cell growth” throughout.
